Experimental data: US8759537B2, “3H-imidazo [4, 5-C] pyridine-6-carboxamides as anti-inflammatory agents” (Boehringer Ingelheim International GmbH, priority 2010, dated 2014)

Each compound was assayed against mPGES-1 (Homo sapiens (Human), UniProt O14684) (assay: A549 cell-based assay (PGE2 formation, IL-1β stimulated, 50% human serum)). Conditions: A549 cells, IL-1β 5 ng/ml, read-out: mPGES-1 inhibitory effect in the cell assay, IC50.
Procedure: Although the enzymatic assay is a high throughput assay the disadvantage is that it uses a recombinant protein which is not in its natural environment. Accordingly a cellular assay was established in which a cell line of human origin (A549) expressing the mPGES-1 protein was used. In addition in order to mimic the situation in humans in which compounds can be bound to plasma proteins 50% human serum is added in the assay.
Cells were detached using Trypsin-EDTA. A549 cells were seeded in a 384-well collagene plate at a density of 7000 cells/well (50 μl) in F-12 medium containing 1% Penicillin-Streptomycin and 50% human serum. The cells were allowed to attach for 3-4 h. […] The total volume is 100 μl.
Concentrations of PGE2 in the cell free medium (10 μl) were measured using a commercially available HTRF kit from Cisbio (as described above). The PGE2 formation in the absence of test compound was taken as 100%.
IC50 values were derived from at 6-8 point titrations using conventional software.

mPGES-1, sequence (O14684 whole entry): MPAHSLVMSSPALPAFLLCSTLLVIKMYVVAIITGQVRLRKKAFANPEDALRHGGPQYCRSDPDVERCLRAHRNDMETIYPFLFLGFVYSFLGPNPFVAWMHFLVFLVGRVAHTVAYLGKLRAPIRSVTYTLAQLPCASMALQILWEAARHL

SMILES | IC50 [nM]
CC(C)(C)C(=O)NCc1ccc(Cl)c(Nc2nc3c(F)c(OCC(F)(F)F)c(C(=O)N[C@H]4CC[C@H](C(F)(F)F)CC4)cc3[nH]2)c1Cl [Example 79] | 1
Cn1c(Nc2c(Cl)ccc(CNC(=O)C(N)C(F)(F)F)c2Cl)nc2cc(C(=O)NCC(F)(F)F)c(OCC(F)F)cc21 (stereo not drawn) [Example 87] | 221
Cn1c(Nc2c(Cl)ccc(CNC(=O)c3ccc(Cl)s3)c2Cl)nc2cc(C(=O)NCC(F)(F)F)c(OCC(F)F)cc21 [Example 92] | 9
Cn1c(Nc2c(Cl)ccc(CNC(=O)C(C)(N)C(F)(F)F)c2Cl)nc2cc(C(=O)NCC(F)(F)F)c(OCC(F)F)cc21 (stereo not drawn) [Example 98] | 2
COCC(=O)NCc1ccc(Cl)c(Nc2nc3cc(C(=O)NCC(F)(F)F)c(OCC(F)F)cc3n2C)c1Cl [Example 101] | 11
Cn1c(Nc2c(Cl)ccc(CNC(=O)C3(C)CC3)c2Cl)nc2cc(C(=O)NCC(F)(F)F)c(OCC(F)F)cc21 [Example 103] | 18
Cn1c(Nc2c(Cl)ccc(CNC(=O)C(C)(C)O)c2Cl)nc2cc(C(=O)NCC(F)(F)F)c(OCC(F)F)cc21 [Example 108] | 59
C[C@H](O)C(=O)NCc1ccc(Cl)c(Nc2nc3cc(C(=O)NCC(F)(F)F)c(OCC(F)F)cc3n2C)c1Cl [Example 109] | 57
CC(C)C(=O)NCc1ccc(Cl)c(Nc2nc3cc(C(=O)NCC(F)(F)F)c(OCC(F)F)cc3n2C)c1Cl [Example 110] | 8
Cn1c(Nc2c(Cl)ccc(CNC(=O)c3cc[nH]n3)c2Cl)nc2cc(C(=O)NCC(F)(F)F)c(OCC(F)F)cc21 [Example 127] | 85
Cn1c(Nc2c(Cl)ccc(CNC(=O)CC(F)(F)F)c2Cl)nc2cc(C(=O)NCC(F)(F)F)c(OCC(F)F)cc21 [Example 128] | 26
COC(C)(C)C(=O)NCc1ccc(Cl)c(Nc2nc3cc(C(=O)NCC(F)(F)F)c(OCC(F)F)cc3n2C)c1Cl [Example 130] | 3
CCCC(=O)NCc1ccc(Cl)c(Nc2nc3cc(C(=O)Nc4ccc(F)c(Cl)c4)c(OCC(F)F)cc3n2C)c1Cl [Example 132] | 2
Cn1c(Nc2c(Cl)ccc(CNC(=O)C3(C)CC3)c2Cl)nc2cc(C(=O)Nc3ccc(F)c(Cl)c3)c(OCC(F)F)cc21 [Example 133] | 1
Cn1c(Nc2c(Cl)ccc(CNC(=O)c3cc(C(F)(F)F)n[nH]3)c2Cl)nc2cc(C(=O)Nc3ccc(F)c(Cl)c3)c(OCC(F)F)cc21 [Example 136] | 17
Cn1c(Nc2c(Cl)ccc(CNC(=O)CO)c2Cl)nc2cc(C(=O)Nc3ccc(F)c(Cl)c3)c(OCC(F)F)cc21 [Example 139] | 27
CC(C(=O)NCc1ccc(Cl)c(Nc2nc3cc(C(=O)Nc4ccc(F)c(Cl)c4)c(OCC(F)F)cc3n2C)c1Cl)C(F)(F)F (stereo not drawn) [Example 141] | < 1
Cn1cccc1C(=O)NCc1ccc(Cl)c(Nc2nc3cc(C(=O)Nc4ccc(F)c(Cl)c4)c(OCC(F)F)cc3n2C)c1Cl [Example 142] | 2.5
Cn1c(Nc2c(Cl)ccc(CNC(=O)CC3CC3)c2Cl)nc2cc(C(=O)Nc3ccc(F)c(Cl)c3)c(OCC(F)F)cc21 [Example 144] | 2
Cn1c(Nc2c(Cl)ccc(CNC(=O)C3(C#N)CC3)c2Cl)nc2cc(C(=O)Nc3ccc(F)c(Cl)c3)c(OCC(F)F)cc21 [Example 145] | 7
Cn1c(Nc2c(Cl)ccc(CNC(=O)C3CC3)c2Cl)nc2cc(C(=O)Nc3ccc(F)c(Cl)c3)c(OCC(F)F)cc21 [Example 148] | 2
Cn1c(Nc2c(Cl)ccc(CNC(=O)C(C)(O)C(F)(F)F)c2Cl)nc2cc(C(=O)Nc3ccc(F)c(Cl)c3)c(OCC(F)F)cc21 (stereo not drawn) [Example 149] | 1
Cn1c(Nc2c(Cl)ccc(CNC(=O)C3(C)COC3)c2Cl)nc2cc(C(=O)Nc3ccc(F)c(Cl)c3)c(OCC(F)F)cc21 [Example 150] | 1
Cn1c(Nc2c(Cl)ccc(CNC(=O)C3CC3(F)F)c2Cl)nc2cc(C(=O)Nc3ccc(F)c(Cl)c3)c(OCC(F)F)cc21 (stereo not drawn) [Example 153] | 3

Now from value to compound:

IC50 [nM] | SMILES
1 | Cn1c(Nc2c(Cl)ccc(CNC(=O)C(C)(C)C)c2Cl)nc2cc(C(=O)Nc3ccc(Br)cc3)c(F)cc21 [Example 7]
4 | CC(C)(C)C(=O)NCc1ccc(F)c(Nc2nc3cc(C(=O)Nc4ccc(Br)cc4)c(OCC(F)F)cc3n2C2CC2)c1F [Example 11]
1 | Cn1c(Nc2c(Cl)ccc(CNC(=O)C(C)(C)C)c2Cl)nc2cc(C(=O)Nc3cccc(C#N)c3)c(OCC(F)F)cc21 [Example 28]
8 | CC(C)(C)C(=O)NCc1ccc(Cl)c(Nc2nc3cc(OC(F)F)c(C(=O)N[C@H]4CC[C@H](C(F)(F)F)CC4)cc3[nH]2)c1Cl [Example 78]
< 1 | Cn1c(Nc2c(Cl)ccc(CNC(=O)C(C)(C)F)c2Cl)nc2cc(C(=O)Nc3ccc(F)c(Cl)c3)c(OCC(F)F)cc21 [Example 84, N-(3-Chloro-4-fluoro-phenyl)-2-{2,6-dichloro-3-[(2-fluoro-2-methyl-propionylamino)-methyl]-phenylamino}-6-(2,2-difluoroethoxy)-1-methyl-1H-benzimidazole-5-carboxylic acid amide]
< 1 | Cn1c(Nc2c(Cl)ccc(CNC(=O)C3(C(F)(F)F)CCC3)c2Cl)nc2cc(C(=O)NCC(F)(F)F)c(OCC(F)F)cc21 [Example 86]
68 | Cn1c(Nc2c(Cl)ccc(CNC(=O)CC3CC3)c2Cl)nc2cc(C(=O)NCC(F)(F)F)c(OCC(F)F)cc21 [Example 88]
36 | Cn1c(Nc2c(Cl)ccc(CNC(=O)C3CCCO3)c2Cl)nc2cc(C(=O)NCC(F)(F)F)c(OCC(F)F)cc21 (stereo not drawn) [Example 90]
10 | Cn1c(Nc2c(Cl)ccc(CNC(=O)C3CCC3)c2Cl)nc2cc(C(=O)NCC(F)(F)F)c(OCC(F)F)cc21 [Example 91]
66 | Cn1c(Nc2c(Cl)ccc(CNC(=O)C3(O)CC3)c2Cl)nc2cc(C(=O)NCC(F)(F)F)c(OCC(F)F)cc21 [Example 93]
13 | Cn1c(Nc2c(Cl)ccc(CNC(=O)C(C)(F)F)c2Cl)nc2cc(C(=O)NCC(F)(F)F)c(OCC(F)F)cc21 [Example 95]
14 | Cn1c(Nc2c(Cl)ccc(CNC(=O)C(O)C(F)(F)F)c2Cl)nc2cc(C(=O)NCC(F)(F)F)c(OCC(F)F)cc21 (stereo not drawn) [Example 96]
52 | Cn1c(Nc2c(Cl)ccc(CNC(=O)C3CC3)c2Cl)nc2cc(C(=O)NCC(F)(F)F)c(OCC(F)F)cc21 [Example 100]
15 | Cn1c(Nc2c(Cl)ccc(CNC(=O)C3CC(F)(F)C3)c2Cl)nc2cc(C(=O)NCC(F)(F)F)c(OCC(F)F)cc21 [Example 102]
106 | Cn1c(Nc2c(Cl)ccc(CNC(=O)c3ccno3)c2Cl)nc2cc(C(=O)NCC(F)(F)F)c(OCC(F)F)cc21 [Example 107]
7 | CCC(=O)NCc1ccc(Cl)c(Nc2nc3cc(C(=O)NCC(F)(F)F)c(OCC(F)F)cc3n2C)c1Cl [Example 111]
19 | Cn1c(Nc2c(Cl)ccc(CNC(=O)CC#N)c2Cl)nc2cc(C(=O)NCC(F)(F)F)c(OCC(F)F)cc21 [Example 112]

IC50 [nM] | SMILES
25 | Cn1c(Nc2c(Cl)ccc(CNC(=O)C3(C#N)CC3)c2Cl)nc2cc(C(=O)NCC(F)(F)F)c(OCC(F)F)cc21 [Example 113]
300 | CC(=O)NCc1ccc(Cl)c(Nc2nc3cc(C(=O)NCC(F)(F)F)c(OCC(F)F)cc3n2C)c1Cl [Example 115]
72 | Cn1c(Nc2c(Cl)ccc(CNC(=O)C(C)(C)CO)c2Cl)nc2cc(C(=O)NCC(F)(F)F)c(OCC(F)F)cc21 [Example 126]
1 | Cn1c(Nc2c(Cl)ccc(CNC(=O)CC(F)(F)F)c2Cl)nc2cc(C(=O)Nc3ccc(F)c(Cl)c3)c(OCC(F)F)cc21 [Example 131]
8 | Cn1c(Nc2c(Cl)ccc(CNC(=O)c3cc[nH]n3)c2Cl)nc2cc(C(=O)Nc3ccc(F)c(Cl)c3)c(OCC(F)F)cc21 [Example 134]
< 1 | COC(C)(C)C(=O)NCc1ccc(Cl)c(Nc2nc3cc(C(=O)Nc4ccc(F)c(Cl)c4)c(OCC(F)F)cc3n2C)c1Cl [Example 135]
4 | Cn1c(Nc2c(Cl)ccc(CNC(=O)C3CCCO3)c2Cl)nc2cc(C(=O)Nc3ccc(F)c(Cl)c3)c(OCC(F)F)cc21 (stereo not drawn) [Example 137]
49 | Cc1nc(C)c(C(=O)NCc2ccc(Cl)c(Nc3nc4cc(C(=O)Nc5ccc(F)c(Cl)c5)c(OCC(F)F)cc4n3C)c2Cl)s1 [Example 138]
2 | CCC(=O)NCc1ccc(Cl)c(Nc2nc3cc(C(=O)Nc4ccc(F)c(Cl)c4)c(OCC(F)F)cc3n2C)c1Cl [Example 146]
4 | CC(O)C(=O)NCc1ccc(Cl)c(Nc2nc3cc(C(=O)Nc4ccc(F)c(Cl)c4)c(OCC(F)F)cc3n2C)c1Cl (stereo not drawn) [Example 147]
1 | CC(C)C(=O)NCc1ccc(Cl)c(Nc2nc3cc(C(=O)Nc4ccc(F)c(Cl)c4)c(OCC(F)F)cc3n2C)c1Cl [Example 151]
< 1 | Cn1c(Nc2c(Cl)ccc(CNC(=O)C(C)(N)C(F)(F)F)c2Cl)nc2cc(C(=O)Nc3ccc(F)c(Cl)c3)c(OCC(F)F)cc21 (stereo not drawn) [Example 152]
36 | Cn1c(Nc2c(Cl)ccc(CNC(=O)CC#N)c2Cl)nc2cc(C(=O)Nc3ccc(F)c(Cl)c3)c(OCC(F)F)cc21 [Example 154]
2 | Cn1c(Nc2c(Cl)ccc(CNC(=O)C(C)(C)CO)c2Cl)nc2cc(C(=O)Nc3ccc(F)c(Cl)c3)c(OCC(F)F)cc21 [Example 155]
10 | Cn1ccnc1C(=O)NCc1ccc(Cl)c(Nc2nc3cc(C(=O)Nc4ccc(F)c(Cl)c4)c(OCC(F)F)cc3n2C)c1Cl [Example 156]
< 1 | Cn1c(Nc2c(Cl)ccc(CNC(=O)c3c(F)cccc3Cl)c2Cl)nc2cc(C(=O)Nc3ccc(F)c(Cl)c3)c(OCC(F)F)cc21 [Example 158]
